Results on two compounds are retold here after US20160346255A1, “METHODS, AGENTS AND COMPOSITIONS FOR TREATMENT OF INFLAMMATORY CONDITIONS” (Betanien Hospital, priority 2014, published 2016).

Common to all, as to format: in vivo, human
In test [1] the test system is post-menopausal female with rheumatoid arthritis. Kind of test: Post-menopausal RA patients on methotrexate, oral ASP1707 30 mg twice daily for 12 weeks. Conditions: ASP1707+MTX; Week 12; assuming placebo+MTX 30%.
Experimental: • Patient is offered experimental GnRH antagonist therapy, ASP1707 30 mg twice daily for 12 weeks orally. Primary Assessment is ACR20 response rate at 12 weeks.
For test [2], the system named is patient with cancer-related inflammation. Kind of test: Cancer-related inflammation, colon cancer patient treated with oral ASP1707. To be noted: 8 mg daily, at 3 months. An excerpt: • person with colon cancer with disease duration of 1 year. Suffers from signs and symptoms of cancer-related inflammation, such as pain, anorexia, and fatigue.
For test [3], the system named is Patient with Psoriatic Arthritis. Kind of test: Psoriatic arthritis patient treated with oral ASP1707. To be noted: 3 mg daily for 12 weeks; response at 4 months. As for the experimental part: • person with psoriatic arthritis • Fulfills CASPAR 2006 classification criteria for psoriatic arthritis.
• Is offered experimental GnRH antagonist therapy, ASP1707 3 mg daily for 12 weeks.

Test [4] deals with Patient with Spondyloarthritis. Kind of test: Spondyloarthritis patient treated with oral relugolix. Conditions: 400 mg daily; at 12 weeks, remission; baseline 5. Here is the method:
• person with spondyloarthritis with disease duration of 5 years.
• Is offered experimental GnRH antagonist therapy, relugolix 400 mg daily for 12 weeks.
• Disease activity in ankylosing spondylitis/spondyloarthritis is measured by the BASDAI score. His BASDAI is 5 at baseline.

As to `C[C@@H](O)C(=N)NS(=O)(=O)c1cc(C(=O)C(C(=O)c2cc(F)ccc2F)=C2Nc3ccccc3N2)ccc1F` [ASP1707, (2R)—N-({5-[3-(2,5-difluorophenyl)-2-(1,3-dihydro-2H-benzoimidazol-2-ylidene)-3-oxopropanoyl]-2-fluorophenyl}sulfonyl)-2-hydroxypropanimidamide], the ACR20 response rate in test [1] amounted to 60%. For the same compound, the “Signs and symptoms of cancer related inflammation (pain, anorexia, fatigue)” value in test [2] is listed as “reduced”. This compound returned a CRP in test [2] (baseline 40 mg/L) of 12 mg/L. Moreover, the DAS reduction entry in test [3] was “over 0.6 units”.
`CONC(=O)Nc1ccc(-c2sc3c(c2CN(C)C)c(=O)n(-c2ccc(OC)nn2)c(=O)n3Cc2c(F)cccc2F)cc1` [relugolix]: in test [4], the BASDAI was found to be 1.2.
